We go through one molecule from paper PMC9986241 (Signal Transduction and Targeted Therapy, 2023).

pKd: −log10 of the molar value.

Data set [1] has as its system SK-MEL-28 (BRAF V600E) CDX. Kind of data set: Cell-derived xenograft (CDX). To be noted: 50 mg/kg, oral gavage. The protocol:
(§1) Tumor volume (mm^3) = (length × width × height) × 0.52. SK-MEL-2: n = 10; A375 and SK-MEL-28: n = 8; HCT116: n = 9. b The photographs show tumors from CDX mice treated with vehicle, erianin, vemurafenib, or the combination. c The weight of the tumors was quantified and expressed as the treatment groups compared with the vehicle-treated group. […] The tissue lysates were prepared from CDX tumor tissues in each treatment group. […] Each point represents the IOD values of four quantified data from one mouse. Scale bars: 50 μm.
(§2) The animal experiments were performed according to the guidelines approved by the Zhengzhou University Institutional Animal Care and Use Committee. A375 cell line (1 × 10^7 cell/mouse), SK-MEL-28 cell line (5 × 10^6 cell/mouse), SK-MEL-2 cell (5 × 10^6 cell/mouse), and HCT116 cell line (1 × 10^7 cell/mouse) were injected subcutaneously into the NOD-SCID mice (Vital River Labs, Beijing, China). For the melanoma PDX mice model, the tumor was taken after surgical operation and implanted into the NPG (Vital River Labs, Beijing, China) mice under a sterile environment. For the colorectal cancer PDX mice model, NOD-SCID mice were selected as carriers for tumor growth. The measurement of tumor size was performed twice a week using vernier caliper and the calculation of tumor volume was done according to tumor volume (mm^3) = length × width × height × 0.52.

Data set [2] has as its system A375 (BRAF V600E) CDX. Kind of data set: Cell-derived xenograft (CDX). To be noted: 50 mg/kg, oral gavage. The method, then:
as §1, §2

Data set [3] has as its system HCT116 (KRAS mut) CDX. The data set is described as follows: Cell-derived xenograft (CDX). The class given is in vivo, NOD-SCID mice. To be noted: 50 mg/kg, oral gavage. The protocol: as §1, §2
The test system of data set [4] is SK-MEL-2 (NRAS mut) CDX. The data set is described as follows: Cell-derived xenograft (CDX). The class given is in vivo, NOD-SCID mice. As to conditions: 50 mg/kg, oral gavage. The protocol:
as §1, §2

Data set [5] relates to SK-MEL-2, A375, SK-MEL-28, and HCT 116 cells. Kind of data set: Anchorage-independent cell growth assay. The class given is cell-based, human. To be noted: both BRAF and RAS mutant cell lines. The protocol: The synergism and antagonism (CI value) were determined and analyzed using CompuSyn 1.0.
The target of data set [6] is T1, CRAF (306-end) (Homo sapiens, UniProt P04049).
T1 construct: purchased
The data set is described as follows: ITC assay. The class given is binding. As to conditions: PBS (0.1% DMSO, pH = 7.4), read-out: affinity (Kd). The method, then:
(§3) 293 T cells were transfected with plasmids of pcDNA3.1-3×Flag-C-MAP2K1/MAP2K1 (K97A, M146A), MAP2K2/MAP2K1 (K101A, M150A), or CRAF/CRAF (K375A). […]
(§4) The ITC experiment was performed on a MicroCal PEAQ-ITC. […] All proteins and erianin were diluted with PBS (0.1% DMSO, pH = 7.4), and deionized water was injected into the reference cell as a heat balance control. After 19 times titrations of erianin into the sample cell at a constant rate of 150 s, the titration curve was fitted with nonlinear least squares estimation model using Microcal ORIGIN V7.0.

Data set [7] addresses MEK2 full length (Homo sapiens, UniProt P36507). The data set is described as follows: ITC assay. As to conditions: PBS (0.1% DMSO, pH = 7.4), read-out: affinity (Kd). It counts as binding. The method, then: as §3, §4
The target of data set [8] is MEK1 full length (Homo sapiens, UniProt Q02750). The data set is described as follows: ITC assay. As to conditions: PBS (0.1% DMSO, pH = 7.4), read-out: affinity (Kd). It counts as binding. The method, then:
as §3, §4

Data set [9] deals with B16F10 CDX. Kind of data set: B16F10 cell xenograft. It counts as in vivo, C57BL-6J mice. The text has this:
Decrease of phospho-MEK1/2 was only observed in erianin and erianin/vemurafenib dual-therapy group, and even all erianin, erianin/vemurafenib dual-therapy, cobimetinib, and cobimetinib/vemurafenib dual-therapy group inhibited phosphorylation of ERK1/2 (Fig. 7d). […] Several clinical studies reveal that immune checkpoint therapies PD-1/PD-L1 synergistically promote RAF inhibitor in treatment of melanoma. Therefore, we checked the immune response involved in antitumor effect of erianin in vivo. After immunosuppression by hydrocortisone (50 mg/kg) for 1 week, B16F10 cell was implanted into C57BL-6J mice followed by vehicle or drug treatment. […]
Fig. 7 Erianin exerts antitumor efficacy in melanoma and colorectal cancer in vivo. a Tumor pharmacodynamic assay was performed in tumor-bearing NPG mice (tumor has been passaged from melanoma patient to mice for three generations). […] Tumor volume was measured once a week. […] One-way ANOVA test. ***p < 0.001. e Antitumor efficacy of erianin with or without immunity using B16F10 cell xenograft in C57BL-6J mouse. f, g Trend of tumor volume over time and tumor weight was measured after treatment on the last day of the study.
Peripheral blood or spleen lymphocytes (CD8a^+, CD4^+, and NK cell) in B16F10 CDX model after treated with erianin were quantified using BD FACSAria^TM III cell sorter. […]

T1 sequence (P04049 306-648 limits assumed): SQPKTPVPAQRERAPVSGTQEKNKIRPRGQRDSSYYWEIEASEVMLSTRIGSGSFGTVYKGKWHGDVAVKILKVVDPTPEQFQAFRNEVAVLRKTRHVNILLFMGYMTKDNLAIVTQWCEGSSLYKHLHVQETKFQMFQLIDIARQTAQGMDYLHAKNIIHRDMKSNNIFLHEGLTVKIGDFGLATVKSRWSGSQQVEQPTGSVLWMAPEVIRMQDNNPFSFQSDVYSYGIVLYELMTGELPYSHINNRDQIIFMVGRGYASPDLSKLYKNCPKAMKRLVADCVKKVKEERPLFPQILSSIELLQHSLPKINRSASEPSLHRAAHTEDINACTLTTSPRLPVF
Sequence of MEK1 full length (Q02750 whole entry): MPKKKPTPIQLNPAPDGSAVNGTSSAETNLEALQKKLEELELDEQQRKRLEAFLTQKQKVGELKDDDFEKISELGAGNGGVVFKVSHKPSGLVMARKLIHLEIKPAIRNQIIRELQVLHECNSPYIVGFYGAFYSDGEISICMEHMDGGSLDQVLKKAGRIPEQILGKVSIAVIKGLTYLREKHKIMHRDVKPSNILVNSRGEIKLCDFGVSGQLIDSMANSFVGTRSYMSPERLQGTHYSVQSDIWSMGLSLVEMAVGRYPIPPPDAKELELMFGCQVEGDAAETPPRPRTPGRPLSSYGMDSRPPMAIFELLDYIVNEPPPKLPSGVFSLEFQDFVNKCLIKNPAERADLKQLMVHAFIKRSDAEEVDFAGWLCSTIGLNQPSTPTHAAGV
Sequence of MEK2 full length (P36507 whole entry): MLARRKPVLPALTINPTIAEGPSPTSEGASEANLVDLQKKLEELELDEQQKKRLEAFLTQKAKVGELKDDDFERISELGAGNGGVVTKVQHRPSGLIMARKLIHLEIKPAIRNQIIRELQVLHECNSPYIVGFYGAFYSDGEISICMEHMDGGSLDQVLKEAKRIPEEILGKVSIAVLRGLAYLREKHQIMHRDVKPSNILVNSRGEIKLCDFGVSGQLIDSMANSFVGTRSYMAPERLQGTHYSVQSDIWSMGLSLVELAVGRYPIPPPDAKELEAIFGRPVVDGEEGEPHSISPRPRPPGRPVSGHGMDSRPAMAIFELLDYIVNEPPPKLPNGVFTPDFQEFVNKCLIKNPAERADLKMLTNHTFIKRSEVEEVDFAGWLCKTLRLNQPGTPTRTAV

In the case of `COc1ccc(CCc2cc(OC)c(OC)c(OC)c2)cc1O` [Erianin], the body weight entry in [1] and in data set [2] was “no significant reduction” each time. For the same molecule, the tumor volume result in data set [1] (vs vehicle-treated group) and in [2] (vs vehicle-treated group) was “significant decrease” in each case. In addition, the “tumor volume and tumor weight” value was “inhibited tumor volume and tumor weight significantly” in data set [3]; “inhibited tumor volume and tumor weight significantly” in data set [4]. For the same molecule, the colonies formation result in data set [5] was “markedly suppress”. The pKd was 4.34 in data set [6], 4.00 in data set [7] and 4.23 in [8]. Besides, the “CD8a+, CD4+ T cells, and NK cells” value in data set [9] (flow cytometry after erianin treatment) is on record as “increased significantly”. Moreover, the tumor growth result in [9] (monotherapy) is reported as “inhibited tumor growth”.

As a reminder, the pKd is the negative decadic logarithm of the Kd, by convention in mol/L.
